Experimental data: patent EP0297547A2, “Use of hydrolyzable tannins for treatement and prophylaxis of AIDS” (LEAD CHEMICAL COMPANY LTD., priority 1987, dated 1989)

How the values were obtained:
[1] = test system: ddy mice; test: LD50 by probit method; type: in vivo
Source text: 50 % lethal dose (LD₅₀) of Coriariin A to ddy mice was obtained by probit method.

[2] = test system: Hela-S3 cells; test: Cytotoxicity to Hela-S3 cells (colony formation); type: cell-based; settings: sensitized 2 hours at 37°C, colonies counted in 72 hours
Protocol: Hela-S3 cells (1 x 10⁴ cells/ml) were applied to an Eagle's MEM medium or a 10 % fresh calf serum-containing Eagle's MEM medium, and Agrimoniin was added thereto to sensitize the cells at 37°C for 2 hours. The concentration of the Agrimoniin added was variously varied. After sensitization, the cells were washed with Hanks' solution and then incubated in a CO₂ incubator containing a 10 % fresh calf serum-containing Eagle's MEM medium at 37°C for 72 hours. […] In addition, IC₅₀ of Agrimoniin to Hela-S3 cells in the 10 % fresh calf serum-containing Eagle's MEM medium was improved to be 57.4 µg/ml. From these experiments, it is noted that ellagitannins have a relatively strong direct cytotoxic action but the cytotoxic action may be reduced by addition of proteins such as serum to the culture medium.

SMILES	LD₅₀ ([1]; Intraabdominal, Female) [mg/kg]	LD₅₀ ([1]; Intraabdominal, Male) [mg/kg]	LD₅₀ ([1]; Intravenous, Female) [mg/kg]	LD₅₀ ([1]; Intravenous, Male) [mg/kg]	LD₅₀ ([1]; Peroral, Female)	LD₅₀ ([1]; Peroral, Male)	50 % cell-inhibiting concentration (IC₅₀) ([2]; 10 % fresh calf serum-containing Eagle's MEM medium) [µg/mL]	50 % cell-inhibiting concentration (IC₅₀) ([2]; Eagle's MEM medium) [µg/mL]
O=C(O[C@@H]1O[C@@H]2COC(=O)c3cc(O)c(O)c(O)c3-c3c(cc(O)c(O)c3O)C(=O)O[C@H]2[C@H](OC(=O)c2cc(O)c(O)c(O)c2)[C@H]1OC(=O)c1cc(O)c(O)c(O)c1)c1cc(O)c(O)c(Oc2c(C(=O)O[C@H]3O[C@@H]4COC(=O)c5cc(O)c(O)c(O)c5-c5c(cc(O)c(O)c5O)C(=O)O[C@H]4[C@H](OC(=O)c4cc(O)c(O)c(O)c4)[C@H]3OC(=O)c3cc(O)c(O)c(O)c3)cc(O)c(O)c2O)c1 [Coriariin A]	119.1	120.2	36.8	37.5	1000 or more mg/kg	1000 or more mg/kg		
O=C(O[C@H]1O[C@@H]2COC(=O)c3cc(O)c(O)c(O)c3-c3c(cc(O)c(O)c3O)C(=O)O[C@H]2[C@@H]2OC(=O)c3cc(O)c(O)c(O)c3-c3c(cc(O)c(O)c3O)C(=O)O[C@@H]12)c1cc(O)c(O)c(Oc2c(C(=O)O[C@H]3O[C@@H]4COC(=O)c5cc(O)c(O)c(O)c5-c5c(cc(O)c(O)c5O)C(=O)O[C@H]4[C@@H]4OC(=O)c5cc(O)c(O)c(O)c5-c5c(cc(O)c(O)c5O)C(=O)O[C@@H]34)cc(O)c(O)c2O)c1 [Agrimoniin]							57.4	7.3
